# From article PMC3179850 (Bioorganic & medicinal chemistry letters, 2009)
# Columns and labels:
# HIV-1 protease = HIV-1 protease (Human immunodeficiency virus type 1 group M subtype B, UniProt P04585); assay: HIV-1 protease enzyme inhibitory assay; assay type: biochemical
# HIV-1MDR/JSL (R5) = assay: microbe, parasite or virus in culture; assay type: cell-based
# HIV-1MDR/MM (R5) = assay type: cell-based
# HIV-1MDR/C (X4) = assay type: cell-based
# HIV-1MDR/G (X4) = assay type: cell-based
# HIV-1MDR/TM (X4) = assay type: cell-based
structure (smiles),measurement,setting,value
Cc1ccccc1CNC(=O)[C@H]1N(C[C@@H](O)[C@H](Cc2ccccc2)NC(=O)O[C@H]2CCOC2)CSC1(C)C [Inhibitor 14a],reduction in enzyme inhibitory activity,HIV-1 protease; relative to corresponding inhibitor 3a,over 400 fold
"CC(C)CN(C[C@@H](O)[C@H](Cc1ccccc1)NC(=O)O[C@H]1CCOC1)S(=O)(=O)c1ccc(N)cc1 [APV, Amprenavir, reference compound]",IC50,HIV-1MDR/JSL (R5); Human immunodeficiency virus 1,531 ± 69 nM
Cc1cc(CO)ccc1CNC(=O)[C@H]1N(C(=O)[C@@H](O)[C@H](Cc2ccccc2)NC(=O)O[C@H]2CO[C@H]3OCC[C@H]32)CSC1(C)C [Inhibitor 16c],enzyme inhibitory activity (in words),HIV-1 protease,sub-nanomolar
Cc1ccccc1CNC(=O)[C@H]1N(C(=O)[C@@H](O)[C@H](Cc2ccccc2)NC(=O)O[C@H]2CO[C@H]3OCC[C@H]32)CSC1(C)C [Inhibitor 3b],potency over amprenavir,HIV-1MDR/MM (R5),≥ 5 fold
same,potency enhancement,"HIV-1 protease; with respect to 3a, enzyme inhibition",over 40 fold
same,potency over amprenavir,HIV-1MDR/C (X4),≥ 5 fold
same,potency over amprenavir,HIV-1MDR/JSL (R5); HIV-1MDR/JSL,over 2 fold
same,potency over amprenavir,HIV-1MDR/G (X4),≥ 5 fold
same,potency over amprenavir,HIV-1MDR/TM (X4),≥ 5 fold
